Experimental data reported in patent US20190209472A1, “FORMULATIONS FOR DERMAL DELIVERY OF POLYMER CONJUGATES OF INDOLOCARBAZOLE COMPOUNDS WITH REDUCED EXPOSURE” (Sienna Biopharmaceuticals, Inc., priority 2017, published 2019).

Tests used:
[1] = Validation of HPLC methods (SNA-120 assay and related substances, benzyl alcohol); conditions: benzyl alcohol in ointment sample solutions stored at ambient conditions
Excerpt: An HPLC method was developed for the detection of assay and related substances of SNA-120 drug product and placebo. The following method validation parameters were challenged: specificity; linearity; accuracy; precision (system and repeatability); range; stability of test solutions; limit of detection and quantitation; system suitability.
An HPLC method was developed for the detection of Benzyl Alcohol in SNA-120 drug product and placebo. The following method validation parameters were challenged: specificity; linearity; accuracy; precision (system and repeatability); range; stability of test solutions; system suitability.

[2] = Phase 1b maximal use study: plasma pharmacokinetics of SNA-120; format: in vivo, human; conditions: any post-baseline timepoint; no detectable levels
Method: This is a multicenter, open-label, Phase 1b study designed to evaluate the PK with maximal use of 0.5% w/w SNA-120 ointment (see Table 1), as measured by circulating plasma levels of SNA-120 in men and women aged ≥18 years who have at least moderate (e.g., moderate to severe) pruritus associated with at least moderate (e.g., moderate to severe) psoriasis vulgaris (PV) covering at least 20% body surface area (BSA). SNA-120 was evaluated as a topical, non-steroidal ointment to treat itch (pruritus) associated with psoriasis. SNA-120 was designed to achieve high local drug concentration in the target tissue while minimizing systemic exposure for patients. SNA-120 directly targets the peripheral itch pathway in the psoriatic plaque.
Approximately 30 eligible subjects will receive 0.5% w/w SNA-120 ointment (2 mg/cm^2) proportional to approximately 35 mg active drug at each application for a subject with at least 20% BSA affected, administered twice daily over 4 weeks to the indicated areas in the Treatment Area. […]
Pharmacokinetics—Blood: Serial blood draws for PK analysis will be obtained approximately the same time of day for Study Days 1 and 29. […] On Days 1 and 29, blood draws will be collected after each nominal ECG extraction time point; the actual times of collection will be recorded in the eCRF. […]

| Compound | Stability of test solutions: samples stable for up to [1] | Plasma levels of K252b [2] [ng/mL] |
| --- | --- | --- |
| OCc1ccccc1 [benzyl alcohol] | ambient conditions. Samples are stable for up to 2 days |  |
| C[C@]12O[C@H](C[C@]1(O)C(=O)O)n1c3ccccc3c3c4c(c5c6ccccc6n2c5c31)CNC4=O [Lot K252b] |  | < 0.250 |
